Measurements published in PubChem BioAssay AID1963962 (Molecular Pharmacology Branch, DTP, NCI, 2024).
pIC50: −log10 of the molar value. Blank lines part the entries; values can stand above or below the molecule they belong to.

Tested on: 967376-340-R-J2-PDC multicell spheroid viability
Assay: Anticancer human tumor 967376-340-R-J2-PDC patient-derived colon adenocarcinoma cell line growth inhibition [PI3K]
Conditions: for pIC50: curve of first compound; for viability, T/C: stronger effect = lower value
Method in brief: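 High-throughput combination screen: PI3K inhibitors crossed with targeted small molecules on complex spheroids of tumor cells, HUVEC and MSCs at 37 degrees C, 5% CO2. Top concentration was at or near clinical Cmax (otherwise 10 microM), with half-log decrements.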

[1] = second compound 0.0316 µM, first compound 0.0316 µM
[2] = second compound 0.0316 µM, first compound 0.1 µM
[3] = second compound 0.0316 µM, first compound 0.316 µM
[4] = second compound 0.0316 µM, first compound 1 µM
[5] = second compound 0.0316 µM, first compound 3.16 µM
[6] = second compound 0.0316 µM, first compound 10 µM
[7] = second compound 0.1 µM, first compound 0.0316 µM
[8] = second compound 0.1 µM, first compound 0.1 µM
[9] = second compound 0.1 µM, first compound 0.316 µM
[10] = second compound 0.1 µM, first compound 1 µM
[11] = second compound 0.1 µM, first compound 3.16 µM
[12] = second compound 0.1 µM, first compound 10 µM
[13] = second compound 0.316 µM, first compound 0.0316 µM
[14] = second compound 0.316 µM, first compound 0.1 µM
[15] = second compound 0.316 µM, first compound 0.316 µM
[16] = second compound 0.316 µM, first compound 1 µM
[17] = second compound 0.316 µM, first compound 3.16 µM
[18] = second compound 0.316 µM, first compound 10 µM
[19] = second compound 1 µM, first compound 0.0316 µM
[20] = second compound 1 µM, first compound 0.1 µM
[21] = second compound 1 µM, first compound 0.316 µM
[22] = second compound 1 µM, first compound 1 µM
[23] = second compound 1 µM, first compound 3.16 µM
[24] = second compound 1 µM, first compound 10 µM
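Further: spheroids exposed to agents for 7 days before read-out.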
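Wherever viability, T/C is given: luminescence used as surrogate of cell viability.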

pIC50 (second compound 0.0316 µM): 5.16
pIC50 (second compound 0.1 µM): < 5.00
pIC50 (second compound 0.316 µM): 5.08
pIC50 (second compound 1 µM): 5.22
pIC50 (second compound 3.16 µM): < 5.00
pIC50 (second compound 10 µM): 5.35
Compound: CCCS(=O)(=O)Nc1ccc(F)c(C(=O)c2c[nH]c3ncc(-c4ccc(Cl)cc4)cc23)c1F + Cc1nc(NC(=O)N2CCCC2C(N)=O)sc1-c1ccnc(C(C)(C)C(F)(F)F)c1
viability, T/C [1]: 80.2%
viability, T/C [2]: 82%
viability, T/C [3]: 101%
viability, T/C [4]: 102%
viability, T/C [5]: 105%
viability, T/C [6]: 29.8%
viability, T/C [7]: 95.7%
viability, T/C [8]: 72%
viability, T/C [9]: 77.2%
viability, T/C [10]: 80%
viability, T/C [11]: 117%
viability, T/C [12]: 60.3%
viability, T/C [13]: 63%
viability, T/C [14]: 81.2%
viability, T/C [15]: 68.7%
viability, T/C [16]: 91.7%
viability, T/C [17]: 88.4%
viability, T/C [18]: 44.3%
viability, T/C [19]: 78.2%
viability, T/C [20]: 69.1%
viability, T/C [21]: 74%
viability, T/C [22]: 74.8%
viability, T/C [23]: 66.3%
viability, T/C [24]: 36.6%
viability, T/C (second compound 3.16 µM, first compound 0.0316 µM): 50.5%
viability, T/C (second compound 3.16 µM, first compound 0.1 µM): 56.5%
viability, T/C (second compound 3.16 µM, first compound 0.316 µM): 60.3%
viability, T/C (second compound 3.16 µM, first compound 1 µM): 65.6%
viability, T/C (second compound 3.16 µM, first compound 3.16 µM): 71.4%
viability, T/C (second compound 3.16 µM, first compound 10 µM): 61.4%
viability, T/C (second compound 10 µM, first compound 0.0316 µM): 59.7%
viability, T/C (second compound 10 µM, first compound 0.1 µM): 46.9%
viability, T/C (second compound 10 µM, first compound 0.316 µM): 69.2%
viability, T/C (second compound 10 µM, first compound 1 µM): 49.6%
viability, T/C (second compound 10 µM, first compound 3.16 µM): 65.1%
viability, T/C (second compound 10 µM, first compound 10 µM): 31.1%

Compound: CC(Nc1ccc2c(c1)OCCn1cc(N3C(=O)OCC3C(F)F)nc1-2)C(N)=O (stereo not drawn)
viability, T/C (compound 0.0316 µM): 86.9% [middle of 7 runs]
viability, T/C (compound 0.1 µM): 81.4% [middle of 7 runs]
viability, T/C (compound 0.316 µM): 67% [middle of 7 runs]
viability, T/C (compound 1 µM): 52.7% [middle of 7 runs]

pIC50 (second compound 0.00316 µM): < 5.00
pIC50 (second compound 0.01 µM): < 5.00
pIC50 (second compound 0.0316 µM): < 5.00
pIC50 (second compound 0.1 µM): < 5.00
pIC50 (second compound 0.316 µM): > 7.50
pIC50 (second compound 1 µM): > 7.50
Compound: C[C@@H](NC(=O)c1ncnc(N)c1Cl)c1ncc(C(=O)Nc2cc(C(F)(F)F)c(Cl)cn2)s1 + COc1c(OCCCN2CCOCC2)ccc2c3n(c(=NC(=O)c4cnc(N)nc4)nc12)CCN3
viability, T/C (second compound 0.00316 µM, first compound 0.0316 µM): 94.3%
viability, T/C (second compound 0.00316 µM, first compound 0.1 µM): 86.9%
viability, T/C (second compound 0.00316 µM, first compound 0.316 µM): 80.6%
viability, T/C (second compound 0.00316 µM, first compound 1 µM): 89.7%
viability, T/C (second compound 0.00316 µM, first compound 3.16 µM): 120%
viability, T/C (second compound 0.00316 µM, first compound 10 µM): 123%
viability, T/C (second compound 0.01 µM, first compound 0.0316 µM): 93.2%
viability, T/C (second compound 0.01 µM, first compound 0.1 µM): 84.5%
viability, T/C (second compound 0.01 µM, first compound 0.316 µM): 91.9%
viability, T/C (second compound 0.01 µM, first compound 1 µM): 100%
viability, T/C (second compound 0.01 µM, first compound 3.16 µM): 112%
viability, T/C (second compound 0.01 µM, first compound 10 µM): 91.3%
viability, T/C [1]: 67.7%
viability, T/C [2]: 77.1%
viability, T/C [3]: 71.9%
viability, T/C [4]: 63%
viability, T/C [5]: 93.3%
viability, T/C [6]: 107%
viability, T/C [7]: 66.6%
viability, T/C [8]: 51.5%
viability, T/C [9]: 70.1%
viability, T/C [10]: 62.7%
viability, T/C [11]: 62.8%
viability, T/C [12]: 70.2%
viability, T/C [13]: 49%
viability, T/C [14]: 49.6%
viability, T/C [15]: 49.2%
viability, T/C [16]: 43.2%
viability, T/C [17]: 56.6%
viability, T/C [18]: 62.6%
viability, T/C [19]: 43%
viability, T/C [20]: 33%
viability, T/C [21]: 38.5%
viability, T/C [22]: 38.1%
viability, T/C [23]: 45.7%
viability, T/C [24]: 45%
